Reference: patent US20100298141A1, “SUBSTITUTED PYRIDINE N-OXIDE HERBICIDES” (E. I. DU PONT DE NEMOURS AND COMPANY, priority 2007, published 2010)

Legend:
redroot pigweed = test: Test A pre-/postemergence greenhouse test; type: in vivo, Amaranthus retroflexus; conditions: for Plant response rating, Pigweed: 0 to 100 scale where 0 is no effect and 100 is complete control; for Pigweed plant response rating: 0 to 100 scale
Description: (§1) Seeds of barnyardgrass (Echinochloa crus-galli), crabgrass (Digitaria sanguinalis), giant foxtail (Setaria faberi), morningglory (Ipomoea spp.), redroot pigweed (Amaranthus retroflexus), velvetleaf (Abutilon theophrasti), wheat (Triticum aestivum), and corn (Zea mays) were planted into a blend of loam soil and sand and treated preemergence with a directed soil spray using test compounds formulated in a non-phytotoxic solvent mixture which included a surfactant. At the same time these species were also treated with postemergence applications of test compounds formulated in the same manner. Plants ranged in height from two to ten cm and were in the one- to two-leaf stage for the postemergence treatment. Treated plants and untreated controls were maintained in a greenhouse for approximately ten days, after which time all treated plants were compared to untreated controls and visually evaluated for injury. […] A dash (-) response means no test results.

velvetleaf = test: Test A pre-/postemergence greenhouse test; type: in vivo, Abutilon theophrasti; conditions: for Plant response rating, Velvetleaf: 0 to 100 scale where 0 is no effect and 100 is complete control; for Velvetleaf plant response rating: 0 to 100 scale
Description: as §1

wheat = test: Test A pre-/postemergence greenhouse test; type: in vivo, Triticum aestivum; conditions: for Plant response rating, Wheat: 0 to 100 scale where 0 is no effect and 100 is complete control; for Wheat plant response rating: 0 to 100 scale
Description: as §1

rice = test: Test C flooded paddy test; type: in vivo, Oryza sativa; conditions: Flood
Description: (§2) At time of treatment, test pots were flooded to 3 cm above the soil surface, treated by application of test compounds directly to the paddy water, and then maintained at that water depth for the duration of the test. Treated plants and controls were maintained in a greenhouse for 13 to 15 days, after which time all species were compared to controls and visually evaluated. […] A dash (-) response means no test result.

umbrella sedge = test: Test C flooded paddy test; type: in vivo, Cyperus difformis; conditions: Flood
Description: as §2

giant foxtail = test: Test A pre-/postemergence greenhouse test; type: in vivo, Setaria faberi; conditions: for Plant response rating, Foxtail, Giant: 0 to 100 scale where 0 is no effect and 100 is complete control; for Foxtail, Giant plant response rating: 0 to 100 scale
Description: as §1

morningglory = test: Test A pre-/postemergence greenhouse test; type: in vivo, Ipomoea spp.; conditions: for Plant response rating, Morningglory: 0 to 100 scale where 0 is no effect and 100 is complete control; for Morningglory plant response rating: 0 to 100 scale
Description: as §1

corn = test: Test A pre-/postemergence greenhouse test; type: in vivo, Zea mays; conditions: for Plant response rating, Corn: 0 to 100 scale where 0 is no effect and 100 is complete control; for Corn plant response rating: 0 to 100 scale
Description: as §1

barnyardgrass [1] = test: Test C flooded paddy test; type: in vivo, Echinochloa crus-galli; conditions: Flood
Description: as §2

barnyardgrass [2] = test: Test A pre-/postemergence greenhouse test; type: in vivo, Echinochloa crus-galli; conditions: for Plant response rating, Barnyardgrass: 0 to 100 scale where 0 is no effect and 100 is complete control; for Barnyardgrass plant response rating: 0 to 100 scale
Description: as §1

crabgrass = test: Test A pre-/postemergence greenhouse test; type: in vivo, Digitaria sanguinalis; conditions: for Plant response rating, Crabgrass, Large: 0 to 100 scale where 0 is no effect and 100 is complete control; for Crabgrass, Large plant response rating: 0 to 100 scale
Description: as §1

duck salad = test: Test C flooded paddy test; type: in vivo, Heteranthera limosa; conditions: Flood
Description: as §2

[3] = Postemergence, 500 g ai/ha, 0 is no effect, 100 is complete control
[4] = Preemergence, 125 g ai/ha, 0 no effect, 100 complete control
[5] = 62 g ai/ha, scale 0 to 100, 0 no effect, 100 complete control, 13 to 15 days
[6] = 250 g ai/ha, scale 0 to 100, 0 no effect, 100 complete control, 13 to 15 days
[7] = Preemergence, 500 g ai/ha, 0 no effect, 100 complete control
[8] = 31 g ai/ha, scale 0 to 100 (0 no effect, 100 complete control)
[9] = 62 g ai/ha, scale 0 to 100 (0 no effect, 100 complete control)
[10] = 125 g ai/ha, scale 0 to 100, 0 no effect, 100 complete control, 13 to 15 days

[O-][n+]1ccccc1[S+]([O-])C(Cl)c1c(C(F)(F)F)nn(CC(F)(F)F)c1Cl (stereo not drawn) [Compound 45]
Plant response rating, Pigweed (redroot pigweed; Postemergence, 125 g ai/ha): 40 | Pigweed plant response rating (redroot pigweed; [3]): 60 | Pigweed plant response rating (redroot pigweed; [4]): 50 | Plant response rating, Pigweed (redroot pigweed; Preemergence, 500 g ai/ha): 100 | Plant response rating, Velvetleaf (velvetleaf; Postemergence, 125 g ai/ha): 30 | Velvetleaf plant response rating (velvetleaf; [3]): 40 | Velvetleaf plant response rating (velvetleaf; [4]): 0 | Plant response rating, Velvetleaf (velvetleaf; Preemergence, 500 g ai/ha): 50 | Plant response rating, Wheat (wheat; Postemergence, 125 g ai/ha): 0 | Wheat plant response rating (wheat; [3]): 0 | Wheat plant response rating (wheat; [4]): 0 | Plant response rating, Wheat (wheat; Preemergence, 500 g ai/ha): 30 | Plant response rating, Rice (rice; [5]): 0 | Plant response rating, Rice (rice; [6]): 25 | Plant response rating, Sedge, Umbrella (umbrella sedge; [6]): 80 | Plant response rating, Foxtail, Giant (giant foxtail; Postemergence, 125 g ai/ha): 50 | Foxtail, Giant plant response rating (giant foxtail; [3]): 80 | Foxtail, Giant plant response rating (giant foxtail; [4]): 70 | Plant response rating, Foxtail, Giant (giant foxtail; Preemergence, 500 g ai/ha): 100 | Plant response rating, Morningglory (morningglory; Postemergence, 125 g ai/ha): 0 | Morningglory plant response rating (morningglory; [3]): 40 | Morningglory plant response rating (morningglory; [4]): 50 | Plant response rating, Morningglory (morningglory; Preemergence, 500 g ai/ha): 60 | Plant response rating, Corn (corn; Postemergence, 125 g ai/ha): 0 | Corn plant response rating (corn; [3]): 0 | Corn plant response rating (corn; [4]): 0 | Plant response rating, Corn (corn; Preemergence, 500 g ai/ha): 0 | Plant response rating, Barnyardgrass (barnyardgrass [1]; [5]): 0 | Plant response rating, Barnyardgrass (barnyardgrass [1]; [6]): 20 | Plant response rating, Barnyardgrass (barnyardgrass [2]; Postemergence, 125 g ai/ha): 40 | Barnyardgrass plant response rating (barnyardgrass [2]; [3]): 70 | Barnyardgrass plant response rating (barnyardgrass [2]; [4]): 0 | Plant response rating, Barnyardgrass (barnyardgrass [2]; Preemergence, 500 g ai/ha): 100 | Plant response rating, Crabgrass, Large (crabgrass; Postemergence, 125 g ai/ha): 60 | Crabgrass, Large plant response rating (crabgrass; [3]): 80 | Crabgrass, Large plant response rating (crabgrass; [4]): 60 | Plant response rating, Crabgrass, Large (crabgrass; Preemergence, 500 g ai/ha): 80 | Plant response rating, Ducksalad (duck salad; [5]): 40 | Plant response rating, Ducksalad (duck salad; [6]): 75

Cn1nc(C(F)(F)F)c(CS(=O)(=O)c2ccc(F)c[n+]2[O-])c1OCC(F)(F)F [Compound 106]
Plant response rating, Pigweed (redroot pigweed; Postemergence, 125 g ai/ha): 0 | Pigweed plant response rating (redroot pigweed; [3]): 50 | Pigweed plant response rating (redroot pigweed; [4]): 70 | Pigweed plant response rating (redroot pigweed; [7]): 80 | Plant response rating, Velvetleaf (velvetleaf; Postemergence, 125 g ai/ha): 0 | Velvetleaf plant response rating (velvetleaf; [3]): 20 | Velvetleaf plant response rating (velvetleaf; [4]): 0 | Velvetleaf plant response rating (velvetleaf; [7]): 60 | Plant response rating, Wheat (wheat; Postemergence, 125 g ai/ha): 0 | Wheat plant response rating (wheat; [3]): 0 | Wheat plant response rating (wheat; [4]): 0 | Wheat plant response rating (wheat; [7]): 0 | Plant response rating, Rice (rice; [8]): 0 | Plant response rating, Rice (rice; [9]): 0 | Plant response rating, Rice (rice; [10]): 20 | Plant response rating, Rice (rice; [6]): 25 | Plant response rating, Sedge, Umbrella (umbrella sedge; [8]): 0 | Plant response rating, Sedge, Umbrella (umbrella sedge; [9]): 0 | Plant response rating, Sedge, Umbrella (umbrella sedge; [10]): 0 | Plant response rating, Sedge, Umbrella (umbrella sedge; [6]): 30 | Plant response rating, Foxtail, Giant (giant foxtail; Postemergence, 125 g ai/ha): 50 | Foxtail, Giant plant response rating (giant foxtail; [3]): 80 | Foxtail, Giant plant response rating (giant foxtail; [4]): 40 | Foxtail, Giant plant response rating (giant foxtail; [7]): 80 | Plant response rating, Morningglory (morningglory; Postemergence, 125 g ai/ha): 0 | Morningglory plant response rating (morningglory; [3]): 30 | Morningglory plant response rating (morningglory; [4]): 10 | Morningglory plant response rating (morningglory; [7]): 50 | Plant response rating, Corn (corn; Postemergence, 125 g ai/ha): 0 | Corn plant response rating (corn; [3]): 0 | Corn plant response rating (corn; [4]): 0 | Corn plant response rating (corn; [7]): 0 | Plant response rating, Barnyardgrass (barnyardgrass [1]; [8]): 0 | Plant response rating, Barnyardgrass (barnyardgrass [1]; [9]): 0 | Plant response rating, Barnyardgrass (barnyardgrass [1]; [10]): 15 | Plant response rating, Barnyardgrass (barnyardgrass [1]; [6]): 20 | Plant response rating, Barnyardgrass (barnyardgrass [2]; Postemergence, 125 g ai/ha): 40 | Barnyardgrass plant response rating (barnyardgrass [2]; [3]): 70 | Barnyardgrass plant response rating (barnyardgrass [2]; [4]): 40 | Barnyardgrass plant response rating (barnyardgrass [2]; [7]): 90 | Plant response rating, Crabgrass, Large (crabgrass; Postemergence, 125 g ai/ha): 30 | Crabgrass, Large plant response rating (crabgrass; [3]): 80 | Crabgrass, Large plant response rating (crabgrass; [4]): 60 | Crabgrass, Large plant response rating (crabgrass; [7]): 80 | Plant response rating, Ducksalad (duck salad; [8]): 0 | Plant response rating, Ducksalad (duck salad; [9]): 50 | Plant response rating, Ducksalad (duck salad; [10]): 60 | Plant response rating, Ducksalad (duck salad; [6]): 80
